Test results published in patent publication US20240287138A1, “CYCLIC PEPTIDES FOR INHIBITING TNF RECEPTOR 1 ACTIVITY” (Merck Sharp & Dohme LLC, priority 2023, published 2024).
Numbered stars: 1 amine (or outer) side, 2 acyl side, 3 side chain; on linkers, the order of the positions; unused ones are H or OH. Square brackets hold non-standard residues; d marks the D form. Peptide text beside a SMILES is read from it. * marks the point of attachment. Trp(βS-Me,7-OMe) = COc1cccc2c([C@H](C)[C@H](N)C(=O)O)c[nH]c12; Trp(1-CH2COOH) = N[C@@H](Cc1cn(CC(=O)O)c2ccccc12)C(=O)O; Trp(7-CN) = N#Cc1cccc2c(C[C@H](N)C(=O)O)c[nH]c12; Trp(7-Cl) = N[C@@H](Cc1c[nH]c2c(Cl)cccc12)C(=O)O; X55 = O=C([C@H]1C[C@H](c2nn[nH]n2)CN1[*:1])[*:2]; Phe(4-CONH2) = NC(=O)c1ccc(C[C@H](N)C(=O)O)cc1; Phe(4-COOH) = N[C@@H](Cc1ccc(C(=O)O)cc1)C(=O)O; Asn(3S-OH) = NC(=O)[C@@H](O)[C@H](N)C(=O)O; X47 = NC[C@H]1C[C@H](C(=O)[*:2])N([*:1])C1; X46 = Nc1ncc(C[C@H](N[*:1])C(=O)[*:2])cn1; Pip(5R-OH) = O=C(O)[C@@H]1CC[C@@H](O)CN1; X1 = O=C([C@@H]1CC[C@H](N[*:1])C1)[*:2]; 4Pal = N[C@@H](Cc1ccncc1)C(=O)O; dHyp = O=C(O)[C@H]1C[C@H](O)CN1; αMeS = C[C@](N)(CO)C(=O)O; Carboxymethyl = O=C(O)C*; Nle = CCCC[C@H](N)C(=O)O; Sar = CNCC(=O)O

What was measured:
[1] = target: T1, human soluble TNFR1 (sTNFR1) (Homo sapiens, UniProt P19438); experiment: Human sTNFR1-peptide displacement assay (LanthaScreen Eu TR-FRET binding assay)
T1 construct: made in house; host or cells: Sf21 (baculovirus)
T1 sequence (P19438 with tags, fused parts or gaps): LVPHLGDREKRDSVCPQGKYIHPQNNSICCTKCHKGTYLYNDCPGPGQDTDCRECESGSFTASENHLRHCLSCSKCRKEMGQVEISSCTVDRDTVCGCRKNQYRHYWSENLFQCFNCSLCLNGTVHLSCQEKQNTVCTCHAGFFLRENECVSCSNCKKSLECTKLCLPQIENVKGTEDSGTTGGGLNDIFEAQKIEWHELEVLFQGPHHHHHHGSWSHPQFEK
Description: A. Procedure for Human sTNFR1-Peptide Displacement Assay
The affinity was determined using LanthaScreen Eu-based time-resolved fluorescence resonance energy transfer (TR-FRET)-based binding assay.
A TR-FRET assay measuring the displacement of biotinylated peptide SEQ ID NO. 1 from human soluble TNFR1 (sTNFR1) in a pre-formed complex by a macrocyclic peptide yields the affinity (Kd^app) of the cyclic peptide for sTNFR1. The reagents for the assay include: the C′-terminally 6His-tagged sTNFR1 (residues 1-211) protein purified from a Sf21 baculovirus expression system, the biotin-tagged B0372 peptide described in section “Preparation of Final Compounds”, part E, the LanthaScreen™ anti-His Tag Europium donor (Life Technologies Corporation (San Diego, CA), cat. #PV5597), and a streptavidin-conjugate Alexa Fluor™ 647 acceptor (Invitrogen (Waltham, MA), cat. #S32357). Time-resolved TR-FRET is achieved when sTNFR1 is bound to biotinylated peptide SEQ ID NO. 1 through coupling of the donor and acceptor FRET pair.
100 nM biotinylated peptide SEQ ID NO. […] 100 nM biotinylated peptide SEQ ID NO. 1 was chosen as it reflects the ˜Kd for this complex. After 30 min at ambient temperature, each test peptide (2 mM stock in DMSO) is titrated in a 20 point, ˜3-fold discrete dose-response using an acoustic-dispense liquid handler. Specifically, 80 nL of peptide/DMSO is transferred into a ProxiPlate-384 Plus 384-well assay plate (PerkinElmer, cat. #6008289). To this plate, 8 μL of the previously formed sTNFR 1-biotinylated peptide SEQ ID NO. 1 complex is added and allowed to reach binding equilibrium with the test peptide at ambient temperature for 90 min.
The TR-FRET signal is measured with the following EnVision® settings: excitation laser at 337 nm; emission1=615 nm, emission2=665 nm, LANCE/DELFIA dichroic mirror, delay time=[…]. The signal of each well is determined as the ratio of the emission at 665 nm to that at 615 nm. Percent displacement is determined by normalization to control wells containing DMSO (0%) or a saturating concentration of a displaceable peptide (100%). The %-effect as a function of peptide concentration is fit to a five-parameter logistic fit based on the Morrison equation to account for tight binding kinetics.

[2] = target: T2, TNFα-induced NF-κB signal transduction pathway (TNFR1 signaling) in THP-1 cells (Homo sapiens, UniProt P19438); experiment: THP-1 Lucia NF-κB reporter cell assay, inhibition of TNFα-induced NF-κB signaling; type: cell-based; conditions: THP-1 NF-κB Lucia reporter cells, 10 ng/mL TNFα, 16-18 h, secreted luciferase; read-out: THP-1 IC50
T2 sequence (P19438 30-455): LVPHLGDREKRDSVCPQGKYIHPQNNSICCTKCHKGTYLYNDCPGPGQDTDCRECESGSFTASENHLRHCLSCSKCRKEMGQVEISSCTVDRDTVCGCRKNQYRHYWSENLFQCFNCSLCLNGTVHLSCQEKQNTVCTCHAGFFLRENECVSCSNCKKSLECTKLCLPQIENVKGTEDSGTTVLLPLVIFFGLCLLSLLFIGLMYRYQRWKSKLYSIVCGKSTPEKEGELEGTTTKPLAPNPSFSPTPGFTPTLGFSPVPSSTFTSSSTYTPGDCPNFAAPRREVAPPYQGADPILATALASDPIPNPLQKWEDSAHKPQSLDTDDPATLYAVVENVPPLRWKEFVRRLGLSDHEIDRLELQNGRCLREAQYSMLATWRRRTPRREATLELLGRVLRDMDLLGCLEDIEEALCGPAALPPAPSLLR
Outline: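 THP-1 Lucia NF-κB cells, 20k/well, no selection antibiotics; peptide pre-inc 1 h 37 °C; + recombinant human TNFα 10 ng/mL final; o.n.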

SMILES | Kd [1] | IC50 [2]
CCCC[C@@H]1NC(=O)[C@@H]2CC[C@@H](C2)NC(=O)[C@H]([C@@H](C)c2c[nH]c3c(OC)cccc23)NC(=O)CN(C)C(=O)[C@H](Cc2ccc(OCC(=O)O)cc2)NC(=O)[C@H](Cc2cnc(N)nc2)NC(=O)[C@](C)(CO)NC(=O)[C@H](Cc2c[nH]c3c(C#N)cccc23)NC(=O)[C@H](Cc2ccc(OCC(=O)O)cc2)NC(=O)[C@H](CC(N)=O)NC(=O)[C@H]2C[C@H](O)CN2C(=O)[C@H](Cc2cn(CC(=O)O)c3ccccc23)NC(=O)[C@@H]2CC[C@@H](O)CN2C(=O)[C@H](Cc2ccncc2)NC1=O [SEQ ID NO. 6] (cyclo([4Pal][Pip(5R-OH)][Trp(1-CH2COOH)][dHyp]NY(Carboxymethyl)[Trp(7-CN)][αMeS][X46]Y(Carboxymethyl)[Sar][Trp(βS-Me,7-OMe)][X1][Nle])) | 0.08 nM | 0.8 nM
CCCC[C@@H]1NC(=O)[C@@H]2CC[C@@H](C2)NC(=O)[C@H]([C@@H](C)c2c[nH]c3c(OC)cccc23)NC(=O)CN(C)C(=O)[C@H](Cc2ccc(C(=O)O)cc2)NC(=O)[C@H](Cc2ccc(C(N)=O)cc2)NC(=O)[C@](C)(CO)NC(=O)[C@H](Cc2c[nH]c3c(Cl)cccc23)NC(=O)[C@H](Cc2ccc(C(=O)O)cc2)NC(=O)[C@H](CC(N)=O)NC(=O)[C@H]2C[C@H](c3nn[nH]n3)CN2C(=O)[C@H](Cc2c[nH]c3ccccc23)NC(=O)[C@@H]2CC[C@@H](O)CN2C(=O)[C@H](Cc2ccncc2)NC1=O [SEQ ID NO. 11] (cyclo([4Pal][Pip(5R-OH)]W[X55]N[Phe(4-COOH)][Trp(7-Cl)][αMeS][Phe(4-CONH2)][Phe(4-COOH)][Sar][Trp(βS-Me,7-OMe)][X1][Nle])) | 0.07 nM | 0.7 nM
CCCC[C@@H]1NC(=O)[C@@H]2CC[C@@H](C2)NC(=O)[C@H]([C@@H](C)c2c[nH]c3c(OC)cccc23)NC(=O)CN(C)C(=O)[C@H](Cc2ccc(C(=O)O)cc2)NC(=O)[C@H](Cc2ccc(C(N)=O)cc2)NC(=O)[C@](C)(CO)NC(=O)[C@H](Cc2c[nH]c3c(Cl)cccc23)NC(=O)[C@H](Cc2ccc(C(=O)O)cc2)NC(=O)[C@H](CC(N)=O)NC(=O)[C@H]2C[C@H](CN)CN2C(=O)[C@H](Cc2c[nH]c3ccccc23)NC(=O)[C@@H]2CC[C@@H](O)CN2C(=O)[C@H](Cc2ccncc2)NC1=O [SEQ ID NO. 15] (cyclo([4Pal][Pip(5R-OH)]W[X47]N[Phe(4-COOH)][Trp(7-Cl)][αMeS][Phe(4-CONH2)][Phe(4-COOH)][Sar][Trp(βS-Me,7-OMe)][X1][Nle])) | 0.1 nM | 0.5 nM
CCCC[C@@H]1NC(=O)[C@@H]2CC[C@@H](C2)NC(=O)[C@H]([C@@H](C)c2c[nH]c3c(OC)cccc23)NC(=O)CN(C)C(=O)[C@H](Cc2ccc(C(=O)O)cc2)NC(=O)[C@H](Cc2ccc(C(N)=O)cc2)NC(=O)[C@](C)(CO)NC(=O)[C@H](Cc2c[nH]c3c(C#N)cccc23)NC(=O)[C@H](Cc2ccncc2)NC(=O)[C@H]([C@H](O)C(N)=O)NC(=O)[C@H]2C[C@H](O)CN2C(=O)[C@H](Cc2c[nH]c3ccccc23)NC(=O)[C@@H]2CC[C@@H](O)CN2C(=O)[C@H](Cc2ccncc2)NC1=O [SEQ ID NO. 25] (cyclo([4Pal][Trp(7-CN)][αMeS][Phe(4-CONH2)][Phe(4-COOH)][Sar][Trp(βS-Me,7-OMe)][X1][Nle][4Pal][Pip(5R-OH)]W[dHyp][Asn(3S-OH)])) | 0.04 nM | 0.8 nM
